Experiments:
[1] = target: Trypanosoma cruzi squalene synthase (TcSQS) (Trypanosoma cruzi, UniProt Q4CWB4); experiment: enzyme inhibition assay, recombinant SQS; format: biochemical
[2] = target: T1, human squalene synthase (HsSQS) (Homo sapiens, UniProt P37268); experiment: enzyme inhibition assay, recombinant SQS; format: biochemical
T1 sequence (P37268 1-417): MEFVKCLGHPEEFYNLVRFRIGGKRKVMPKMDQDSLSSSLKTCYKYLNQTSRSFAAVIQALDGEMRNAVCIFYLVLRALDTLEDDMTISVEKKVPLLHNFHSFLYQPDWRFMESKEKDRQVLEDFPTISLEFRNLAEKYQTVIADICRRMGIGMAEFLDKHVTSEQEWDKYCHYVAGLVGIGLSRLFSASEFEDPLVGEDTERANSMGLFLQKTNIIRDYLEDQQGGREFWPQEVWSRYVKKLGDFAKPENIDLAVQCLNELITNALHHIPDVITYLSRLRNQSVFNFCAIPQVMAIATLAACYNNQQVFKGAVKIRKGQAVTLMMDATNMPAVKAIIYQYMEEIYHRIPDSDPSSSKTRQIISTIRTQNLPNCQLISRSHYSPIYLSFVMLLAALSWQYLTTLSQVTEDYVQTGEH

`CC(C)=CCC/C(C)=C\CNCCNC1C2CC3CC(C2)CC1C3` (centres unmarked) [compound 3, SQ-109] gave a Ki [1] of 1.2 µM and a Ki [2] of 0.74 µM.

Source: publication PMC3349777 (2012)
